Laboratory results from patent US12310942B2, “Pharmaceutical compositions comprising statins and hyaluronic acid derivatives” (FIDIA FARMACEUTICI S.p.A., priority 2019, dated 2025).
Read-outs that look alike come from different tables or passages of the source.

System: bovine cartilage biopsies
Details: IL-1β and OSM 10 ng/mL, 21 days, FIG. 3
Method: For this purpose, cartilage biopsies were collected from the patello-femoral sulcus and femoral condyles from the femur of 1 adult bovine (15-18 months). […] The biopsies (Ø=3 mm) were taken with a steel punch.
Each biopsy was transferred to a well of a 48-well MW and washed twice with 500 μL PBS 1× (Euroclone, cat. no. ECB4004L, Italy). […] The biopsies were incubated for 24 h at 37° C. 5% CO2. After incubation, the biopsies were washed with 500 μL PBS 1×, and 500 μL DMEM/F-12+2% FBS containing the dilution of the compound to be tested were added to all the wells. Each statin was used at the concentrations of 10 μM and 2.5 μM. 4 biopsies were used for each condition. After 7, 14 and 21 days, the biopsy culture medium was aspirated and replaced with 500 μL of fresh culture medium containing the appropriate concentrations of pro-inflammatory cytokines (IL-1β and OSM, 10 ng/mL) and the active ingredients to be tested. The biopsy culture medium was harvested after 21 days and used to determine the soluble collagen content. The Sircol assay was conducted according to the manufacturer's instructions, and quantitation was effected by spectrophotometric reading at 555 nm.

Structure (SMILES) | collagen release induced by IL-1β and OSM (statin 2.5 μM) | collagen release induced by IL-1β and OSM (statin 10 μM)
CC(C)c1c(C(=O)Nc2ccccc2)c(-c2ccccc2)c(-c2ccc(F)cc2)n1CC[C@@H](O)C[C@@H](O)CC(=O)O [atorvastatin] | significant reduction in collagen release | significant reduction in collagen release
CC[C@H](C)C(=O)O[C@H]1C[C@@H](C)C=C2C=C[C@H](C)[C@H](CC[C@@H]3C[C@@H](O)CC(=O)O3)[C@H]21 [lovastatin] | values comparable to those of the untreated control | significant reduction in collagen release
